{"source": "patent EP1343508B1", "about": "“USE OF AN OESTROGEN IN THE MANUFACTURE OF A COMPOSITION CONTAINING OESTROGEN FOR THE TREATMENT OF ATROPHIC VAGINITIS” (Novo Nordisk Femcare AG, priority 2000, dated 2002)", "key": {"[1]": {"tested_on": "postmenopausal women with atrophic vaginitis", "assay": "Patients with vaginal pH below 5.5, Example 3", "format": "in vivo", "experimental": "Efficacy was measured with composite scores of vaginal symptoms (dryness, soreness, and irritation) and vaginal health (secretions, epithelial integrity, surface thickness, and pH). Vaginal and urethral cytology analyses were also performed, and the vaginal maturation value was determined. Safety assessments included endometrial biopsies. […] All vaginal tablets were identical in appearance. Patients inserted 1 tablet daily for 14 days. Thereafter, patients inserted 1 tablet twice per week (Sunday and Thursday) for the remainder of the trial. Patients were to insert the tablets at the same time each day (preferably at bedtime). Patients were evaluated for efficacy and safety at Week - 4 (screening), Week 0 (baseline), and Weeks 2, 7, and 12. Investigators used a severity scale of none, mild, moderate, or severe to assess vaginal health characteristics (secretions, epithelial integrity, surface thickness, color, and pH). Severity categories were assigned ascending scores from 0 (none) to 3 (severe) for analysis. To avoid multiple endpoint issues, composite scores were defined. A composite score for vaginal health was defined as the average of the individual vaginal health characteristic scores. The composite score and the change from baseline for the composite score were examined at each time point. Differences within and between treatment groups were analyzed using an analysis of variance (ANOVA). […] Efficacy was measured with composite scores of vaginal symptoms (dryness, soreness, and irritation) and vaginal health (secretions, epithelial integrity, surface thickness, and pH). Vaginal and urethral cytology analyses were also performed, and the vaginal maturation value was determined. Safety assessments included endometrial biopsies. […] All vaginal tablets were identical in appearance. Patients inserted 1 tablet daily for 14 days. Thereafter, patients inserted 1 tablet twice per week (Sunday and Thursday) for the remainder of the trial. Patients were to insert the tablets at the same time each day (preferably at bedtime). Patients were evaluated for efficacy and safety at Week - 4 (screening), Week 0 (baseline), and Weeks 2, 7, and 12. Investigators used a severity scale of none, mild, moderate, or severe to assess vaginal health characteristics (secretions, epithelial integrity, surface thickness, color, and pH). Severity categories were assigned ascending scores from 0 (none) to 3 (severe) for analysis. To avoid multiple endpoint issues, composite scores were defined. A composite score for vaginal health was defined as the average of the individual vaginal health characteristic scores. The composite score and the change from baseline for the composite score were examined at each time point. Differences within and between treatment groups were analyzed using an analysis of variance (ANOVA)."}, "[2]": {"tested_on": "postmenopausal women with atrophic vaginitis", "assay": "Vaginal health composite score (investigator rating), Example 3", "format": "in vivo", "settings": "each treatment group (25 or 10 µg E2); Week 0 (baseline); scale 0-3", "experimental": "Efficacy was measured with composite scores of vaginal symptoms (dryness, soreness, and irritation) and vaginal health (secretions, epithelial integrity, surface thickness, and pH). Vaginal and urethral cytology analyses were also performed, and the vaginal maturation value was determined. Safety assessments included endometrial biopsies. […] All vaginal tablets were identical in appearance. Patients inserted 1 tablet daily for 14 days. Thereafter, patients inserted 1 tablet twice per week (Sunday and Thursday) for the remainder of the trial. Patients were to insert the tablets at the same time each day (preferably at bedtime). Patients were evaluated for efficacy and safety at Week - 4 (screening), Week 0 (baseline), and Weeks 2, 7, and 12. […] Differences within and between treatment groups were analyzed using an analysis of variance (ANOVA). […] Efficacy was measured with composite scores of vaginal symptoms (dryness, soreness, and irritation) and vaginal health (secretions, epithelial integrity, surface thickness, and pH). Vaginal and urethral cytology analyses were also performed, and the vaginal maturation value was determined. […] Patients were evaluated for efficacy and safety at Week - 4 (screening), Week 0 (baseline), and Weeks 2, 7, and 12. […] Differences within and between treatment groups were analyzed using an analysis of variance (ANOVA)."}}, "note": "Marks after values point to notes of the source that are not given here.", "data": [{"compound": "C[C@]12CC[C@@H]3c4ccc(O)cc4CC[C@H]3[C@@H]1CC[C@@H]2O", "note": "[E2, 17β-estradiol]", "values": [{"measurement": "Patients With Vaginal pH Values Below 5.5, (%)", "setting": "[1]; 10 µg E2, Week 0", "value": "(30.3) %"}, {"measurement": "Patients With Vaginal pH Values Below 5.5, n/N", "setting": "[1]; 10 µg E2, Week 0", "value": "27/89"}, {"measurement": "Patients With Vaginal pH Values Below 5.5, (%)", "setting": "[1]; 10 µg E2, Week 2", "value": "(79.8)^b %"}, {"measurement": "Patients With Vaginal pH Values Below 5.5, n/N", "setting": "[1]; 10 µg E2, Week 2", "value": "67/84"}, {"measurement": "Patients With Vaginal pH Values Below 5.5, (%)", "setting": "[1]; 10 µg E2, Week 7", "value": "(71.3)^c %"}, {"measurement": "Patients With Vaginal pH Values Below 5.5, n/N", "setting": "[1]; 10 µg E2, Week 7", "value": "57/80"}, {"measurement": "Patients With Vaginal pH Values Below 5.5, (%)", "setting": "[1]; 10 µg E2, Week 12", "value": "(76.1)^b %"}, {"measurement": "Patients With Vaginal pH Values Below 5.5, n/N", "setting": "[1]; 10 µg E2, Week 12", "value": "54/71"}, {"measurement": "Patients With Vaginal pH Values Below 5.5, (%)", "setting": "[1]; 25 µg E2, Week 0", "value": "(34.4) %"}, {"measurement": "Patients With Vaginal pH Values Below 5.5, n/N", "setting": "[1]; 25 µg E2, Week 0", "value": "31/90"}, {"measurement": "Patients With Vaginal pH Values Below 5.5, (%)", "setting": "[1]; 25 µg E2, Week 2", "value": "(73.6)^a %"}, {"measurement": "Patients With Vaginal pH Values Below 5.5, n/N", "setting": "[1]; 25 µg E2, Week 2", "value": "64/87"}, {"measurement": "Patients With Vaginal pH Values Below 5.5, n/N", "setting": "[1]; 25 µg E2, Week 7", "value": "71/83"}, {"measurement": "Patients With Vaginal pH Values Below 5.5, (%)", "setting": "[1]; 25 µg E2, Week 12", "value": "(79.7)^b %"}, {"measurement": "Patients With Vaginal pH Values Below 5.5, n/N", "setting": "[1]; 25 µg E2, Week 12", "value": "63/79"}, {"measurement": "percentage of patients with vaginal pH values below 5.5", "setting": "[1]; each treatment group (25 or 10 µg E2), Week 0", "value": "approximately 35%"}, {"measurement": "vaginal health composite score", "setting": "[2]", "value": "approximately 1.7"}]}]}
